Experimental data: publication PMC3532939 (Biochemistry, 2012)

T1: SmPabB (Stenotrophomonas maltophilia, UniProt B2FR92)
T1 sequence (B2FR92 1-454): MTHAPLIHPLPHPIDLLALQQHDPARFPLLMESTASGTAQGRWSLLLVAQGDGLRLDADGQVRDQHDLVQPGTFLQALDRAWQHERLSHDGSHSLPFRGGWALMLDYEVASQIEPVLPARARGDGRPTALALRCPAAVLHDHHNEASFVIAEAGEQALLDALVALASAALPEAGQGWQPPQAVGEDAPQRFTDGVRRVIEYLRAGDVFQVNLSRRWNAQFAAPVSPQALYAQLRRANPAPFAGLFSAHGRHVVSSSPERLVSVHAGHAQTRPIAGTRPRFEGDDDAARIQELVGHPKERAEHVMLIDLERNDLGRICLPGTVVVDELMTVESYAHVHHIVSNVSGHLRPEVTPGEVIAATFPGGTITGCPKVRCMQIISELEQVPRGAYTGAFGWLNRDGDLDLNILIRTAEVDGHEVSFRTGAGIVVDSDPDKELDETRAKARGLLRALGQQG

T2: E. coli PabB (Escherichia coli, UniProt P05041)
T2 sequence (P05041 1-453): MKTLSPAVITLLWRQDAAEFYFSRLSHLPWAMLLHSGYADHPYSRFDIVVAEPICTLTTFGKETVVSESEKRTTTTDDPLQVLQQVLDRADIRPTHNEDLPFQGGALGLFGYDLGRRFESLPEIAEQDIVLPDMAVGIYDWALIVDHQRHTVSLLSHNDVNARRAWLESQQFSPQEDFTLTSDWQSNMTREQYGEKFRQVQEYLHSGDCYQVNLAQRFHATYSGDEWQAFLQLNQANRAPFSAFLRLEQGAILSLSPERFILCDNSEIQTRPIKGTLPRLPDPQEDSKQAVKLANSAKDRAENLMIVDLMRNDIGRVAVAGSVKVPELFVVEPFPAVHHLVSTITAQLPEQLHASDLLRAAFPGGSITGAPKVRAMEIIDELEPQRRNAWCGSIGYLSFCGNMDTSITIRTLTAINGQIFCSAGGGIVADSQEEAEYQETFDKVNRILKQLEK

T3: Stenotrophomonas maltophilia PabB (aminodeoxychorismate synthase) (Stenotrophomonas maltophilia, UniProt B2FR92 2-454)
T3 sequence: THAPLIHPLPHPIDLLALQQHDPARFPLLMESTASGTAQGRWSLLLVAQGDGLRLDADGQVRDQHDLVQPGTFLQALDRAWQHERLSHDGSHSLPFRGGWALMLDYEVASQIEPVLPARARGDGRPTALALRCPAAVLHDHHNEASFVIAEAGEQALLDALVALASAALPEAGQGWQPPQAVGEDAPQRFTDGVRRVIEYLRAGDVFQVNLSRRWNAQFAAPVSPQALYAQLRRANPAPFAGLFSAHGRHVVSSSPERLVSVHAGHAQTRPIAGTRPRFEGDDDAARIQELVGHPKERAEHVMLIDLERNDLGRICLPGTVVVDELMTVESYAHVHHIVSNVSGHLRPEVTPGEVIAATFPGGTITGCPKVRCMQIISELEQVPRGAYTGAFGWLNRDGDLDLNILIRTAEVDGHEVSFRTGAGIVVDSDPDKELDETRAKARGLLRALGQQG

T4: E. coli PabB (aminodeoxychorismate synthase) (E. coli, UniProt P05041 1-453)
T4 sequence: T2 sequence (P05041 1-453)

B1: E. coli PabA (glutamine amidotransferase subunit of aminodeoxychorismate synthase) (enzyme, UniProt P00903 1-187, looked up)
chain: MILLIDNYDSFTWNLYQYFCELGADVLVKRNDALTLADIDALKPQKIVISPGPCTPDEAGISLDVIRHYAGRLPILGVCLGHQAMAQAFGGKVVRAAKVMHGKTSPITHNGEGVFRGLANPLTVTRYHSLVVEPDSLPACFDVTAWSETREIMGIRHRQWDLEGVQFHPESILSEQGHQLLANFLHR

Columns and labels:
SmPabB = target: T1, SmPabB; assay: isothermal titration calorimetry; type: binding
E. coli PabB = target: T2, E. coli PabB; assay: LC/MS of bound ligand released from purified protein; type: binding; settings: co-purified tryptophan; vestigial regulatory site
[1] = target: T3, Stenotrophomonas maltophilia PabB …; assay: other fluorescence titration
[2] = target: T4, E. coli PabB (aminodeoxychorismate …); assay: other fluorescence titration

Molecule	Kd (SmPabB) [nM]	LC/MS of bound ligand released from purified protein (E. coli PabB)	Kd [1] [nM]	Kd [2] [nM]
N[C@@H](Cc1c[nH]c2ccccc12)C(=O)O [tryptophan]	~11700	E. coli PabB samples, as expected, contained tryptophan	–	–
B1	–	–	39	109
